Measured values published in US7928189B2, “PCSK9 polypeptide fragment” (Ottawa Health Research Institute, priority 2008, dated 2011).
Where no end group is shown, it is not given here. [ ]: non-standard residue; d: D form. pS = N[C@@H](COP(=O)(O)O)C(=O)O

Key:
Assay type in all cases: cell-based, human
[1] = system: LDLR levels in Huh7 cells; assay: Kinase inhibitor incubation, LDLR immunoblot of total cell lysates; settings: 16 hrs, SSP at 200 nm, GK at 25 μg/ml, relative to untreated cells
Experimental: The level of LDLR was quantified in Huh7 cells by immunoblotting of total cell lysates (50 μg) in response to overnight incubation without (control) or with two different kinase inhibitors, staurosporine (SSP at 200 nm) or GK (genistein at 25 μg/ml) (FIG. 11A). Huh7 cells were seeded onto 6 well plates and grown to 80% confluency in DMEM (Dulbecco's Modified Eagle's Medium)+10% (v/v) FBS (fetal bovine serum)+280 μg/ml GTM (gentamycin). Cells were then incubated for 16 hrs in the same media in the presence or absence of kinase inhibitor; staurosporine (SSP at 200 nm) or GK (genistein at 25 μg/ml). Cells were lysed in 1XRIPA buffer [50 mM Tris (pH 7.6), 150 mM NaCl, 1% (v/v) NP-40, 0.5% (w/v) DOC, 0.1% (w/v) SDS] in the presence of inhibitors, as above. Lysates were rotated at 4° C. for 30 min, centrifuged at 13,000×g for 3 min and supernatants collected. Protein concentrations in total cell lysates were determined by the Bradford dye-binding method using Bio-Rad's Protein Assay Kit (Bio-Rad; Mississauga, ON, CAN). LDLR levels were analyzed by immunoblotting following a standard protocol. The protein signals were quantified by densitometry using Syngene Chemigenius 2XE imager and Gene Tools software. […]

[2] = system: PCSK9 phosphorylation in Huh7 cells; assay: Kinase inhibitor incubation, radiolabelling and immunoprecipitation of secreted PCSK9; settings: 32P-orthophosphate, 16 hrs, SSP at 200 nm, GK at 25 μg/ml
Experimental: Untransfected and transfected HepG2 and Huh7 cells were grown to confluence as above. Prior to radiolabeling cells were incubated for 4 hours in serum-free DMEM without sodium phosphate (Invitrogen) or methionine/cysteine (Met/Cys) free DMEM (Invitrogen) and then incubated for 16 hrs in the same media in the presence of either 250 μCi 32P-orthophosphate or 250 μCi 35S-Met/Cys. Media and TCLs were harvested and immunoprecipitated as described above. Samples were fractionated through a 12% SDSPAGE. Following electrophoresis gels were dried and visualized by phosphoimaging using a Typhoon Imager. Signals were quantified using ImageQuant 5.2 software using the integer integration method when comparing samples within a lane and, for samples between lanes, by volume quantitation as recommended. The level of LDLR was quantified in Huh7 cells by immunoblotting of total cell lysates (50 μg) in response to overnight incubation without (control) or with two different kinase inhibitors, staurosporine (SSP at 200 nm) or GK (genistein at 25 μg/ml) (FIG. 11A). […] Protein concentrations in total cell lysates were determined by the Bradford dye-binding method using Bio-Rad's Protein Assay Kit (Bio-Rad; Mississauga, ON, CAN). LDLR levels were analyzed by immunoblotting following a standard protocol. […]

[3] = system: LDLR levels in Huh7 cells; assay: Peptides added to cultured cells, LDLR immunoblot of total cell lysates; settings: 24 hours, media minus FBS
Experimental: Cells were seeded onto 6 well plates and grown to ˜80% confluency. All cell lines were grown in DMEM (Dulbecco's Modified Eagle's Medium)+10% (v/v) FBS (fetal bovine serum)+280 μg/ml GTM (gentamycin). In this case, cells were incubated overnight in the same media in the absence of FBS for 12 hours. Peptides are then added to media minus FBS, and at indicated concentrations and this media+peptide is added onto cells cultured for additional 24 hours. Following this incubation we collected the spent media and total cell lysates (TCL) in the presence of protease inhibitor cocktail. 50 μg of proteins from TCL were then fractionated by SDS-PAGE, transferred to nitrocellulose and immunoblotted following standard protocols with a commercial anti LDLR antibody. The protein signals for LDLR were quantified by densitometry using Syngene Chemigenius 2XE imager and Gene Tools software. All values are made relative to values from untreated control cells set as 1 and presented as mean±SEM ([…]).

[4] = system: LDLR levels in Huh7 cells; assay: Overexpression of PCSK9 phosphorylation mutants, LDLR immunoblot; settings: 72 hours post-transfection, in comparison to wildtype PCSK9
Experimental: Huh7 cells were untransfected (C-control) or transiently transfected with cDNAs encoding either wild-type (WT) PCSK9, or the naturally-occurring propeptide mutants shown to decrease PCSK9 phosphorylation; A53V PCSK9 and R46L PCSK9 or the engineered propeptide mutants that prevent phosphorylation; S47A PCSK9, E49A PCAK9 and E49D PCSK9 or the engineered C-terminal mutants that prevent phosphorylation; S688A and E690A. 72 hours post-transfection spent media and total cell lysates were collected as described herein. 50 μg of total cell lysates were fractionated through a 7% NuPAGE Tris-Acetate Gel (Invitrogen) and immunoblotted for LDLR as described below. The protein signals were quantified by densitometry using Syngene Chemigenius 2XE imager and Gene Tools software. All values were made relative to values from control cells set as 1 and presented as mean±SEM (n=3). Data were analyzed using GraphPad Prism 5.0 statistical software with significance defined as p<0.05.

Compound | effect on LDLR degradation in comparison to control ([3]; peptide 10 μM) | effect on LDLR degradation in comparison to control ([3]; peptide 100 μM) | also measured
O=c1c(-c2ccc(O)cc2)coc2cc(O)cc(O)c12 [GK, genistein] |  |  | level of LDLR [1]: not; phosphorylation of PCSK9 and its prodomain [2]: does not affect PCSK9 phosphorylation
RSRHLAQAS(phos)QELQ (RSRHLAQA[pS]QELQ) [SEQ ID NO:5, phosphorylated PCSK9 polypeptide fragment comprising phosphoSerine 688] | protect LDLR from degradation | protect LDLR from degradation | 
VLALRS(phos)EEDGLAEAP (VLALR[pS]EEDGLAEAP) [SEQ ID NO:3, phosphorylated PCSK9 polypeptide fragment comprising phosphoSerine 47] | accentuate LDLR degradation | accentuate LDLR degradation | 
RSRHLAQASQELQ (homo sapiens) [SEQ ID NO:4, unphosphorylated PCSK9 polypeptide fragment comprising Serine 688] | protect LDLR from degradation |  | 
S47E: engineered propeptide mutant that mimics PCSK9 propeptide phosphorylation |  |  | level of LDLR / LDLR degradation [4]: increased LDLR degradation
CN[C@@H]1C[C@H]2O[C@@](C)([C@@H]1OC)n1c3ccccc3c3c4c(c5c6ccccc6n2c5c31)C(=O)NC4 [SSP, staurosporine] |  |  | level of LDLR [1]: increased levels of LDLR; phosphorylation of PCSK9 and its prodomain [2]: neither PCSK9 nor its prodomain are phosphorylated
VLALRSEEDGLAEAP (homo sapiens) [SEQ ID NO:2, unphosphorylated PCSK9 polypeptide fragment comprising Serine 47] | protect LDLR from degradation | protect LDLR from degradation | 
